Test results taken from EP4782434A1, “N-SULFONYL CARBOXAMIDE COMPOUND, AND PREPARATION METHOD THEREFOR AND USE THEREOF” (Nutshell Therapeutics (Shanghai) Co., Ltd., priority 2023, dated 2025).

Key:
[1] = tested on: Theta-mediated end joining (TMEJ) process in HEK293T cells; assay: TMEJ reporter assay (NanoGlo luciferase); format: cell-based; conditions: Homo sapiens, HEK-293T, HEK293T cells electroporated with TMEJ substrate, 24 hours
Procedure: The inhibitory effect of the compounds on the Theta-mediated end joining (TMEJ) process was evaluated.
(1) HEK293T cells were cultured in DMEM supplemented with 10% heat-inactivated fetal bovine serum (FBS) and 1% penicillin-streptomycin (PS). (2) Prior to startup, the Neon transfection system was disinfected, and E2 and R buffers were equilibrated to room temperature. (3) Culture medium without antibiotics was pre-warmed. (4) Cells in the flask reaching 80-90% confluency were trypsinized, neutralized with culture medium, centrifuged, and counted. (5) For transfection using a 100 µL electroporation tip, 2 × 10^6 cells were taken, washed once with DPBS (without Mg^2+ and Ca^2+), centrifuged at 1000 rpm for 5 min, and the supernatant was discarded. The number of cells and volume may be increased as required. (6) The Neon system was set up; a Neon tube was inserted into the Neon pipette and E2 buffer was added. (7) 10 µg of TMEJ substrate was added to 100 µL of R solution; the volume may be increased as required. (8) Cells were resuspended in DNA buffer, and electroporation was initiated according to the following parameters:
(9) The cells were loaded into antibiotic-free culture medium and mixed gently. (10) Steps (8)-(9) were repeated as necessary, and cells were seeded into 384-well plates at a density of 40,000 cells/well in 40 µL of culture medium. (11) The plates were incubated in a humidified CO2 incubator at 37°C for 24 hours. (12) NanoGlo reagent was warmed to room temperature, and NanoGlo buffer was mixed with the substrate at a ratio of 50:1. (13) The cell culture plates were equilibrated at room temperature for 10 minutes. (14) 40 µL of NanoGlo substrate buffer was added to each well, followed by shaking at 300 rpm for 3 minutes protected from light. (15) Signals were read via a BMG PHERAstar FSX.

Polθ ATPase = molecular target: T1, Polθ ATPase (Homo sapiens, UniProt O75417); assay: Polθ ATPase activity assay (ADP-Glo Kinase Assay kit); format: biochemical; conditions: truncated POLQ-N protein (aa 1-894) 1 nM, 50 nM ssDNA, 50 µM ATP
T1 construct: purified truncated POLQ-N protein (aa 1-894, N-terminal 6-His tag); 6-His (N)
Procedure: The inhibitory efficiency of the compounds of formula (I) against Polθ ATPase activity was determined using the ADP-Glo Kinase Assay kit (Promega, V9101). […] The starting (final) concentration was 100 nM, followed by a 3-fold serial dilution for a total of 10 concentration points in duplicate (n=2). 5 μL of purified […], N-terminal 6-His tag) was added to each well. After centrifugation at 1000 rpm for 1 minute, the plate was incubated at 25°C for 10 minutes. 5 μL of substrate reaction solution (containing ATP & ssDNA) was added to each well, and the reaction was carried out at 25°C for 60 minutes. 5 μL of ADP-Glo Reagent was added to each well. After centrifugation at 1000 rpm for 1 minute, the plate was incubated at 25°C for 40 minutes. 10 μL of detection solution was added to each well. After centrifugation at 1000 rpm for 1 minute, the plate was incubated at 25°C for 40 minutes. Luminescence signals were recorded using a microplate reader (BMG, PHERAstar FSX). The final reaction system contained 1 nM of POLQ-N enzyme; 50 nM of ssDNA ([NT]); 50 μM of ATP; and 1% DMSO. The inhibition percentage (%) of the compound at each concentration was calculated using the RFU values normalized against the control wells within each assay plate. Table 1: Inhibitory activity of compounds against Polθ ATPase

[2] = Pharmacokinetic study in rats; format: in vivo; conditions: rat, plasma; male Wistar-Han rats, dose 30 mg/kg; route not stated in the table (oral gavage vehicle given)
Procedure: • 1. Experimental objective: To test the pharmacokinetics of the compounds in in vivo experiments using Wistar-Han rats. • 2. Experimental instruments and materials:
Animal: Wistar-Han rats (male)
Oral gavage: 1% methylcellulose aqueous solution.
Six male rats were used. On the evening prior to administration, the animals were fasted, with free access to water. During the experimental period, […] had free access to food and water. The animals were administered either by intravenous injection or intragastric gavage, after which the status of the animals was observed and any abnormal manifestations were recorded. Blood was collected via jugular vein puncture at 0.0833, 0.25, 1, 2, 4, 8, and 24 hours following intravenous administration; and at 0.25, 0.5, 1, 2, 4, 6, 8, and 24 hours following intragastric gavage. […]
A standard curve was established using the internal standard method, with the theoretical concentrations of the standard curve as the abscissa and the peak area ratio (peak area of test compound / peak area of internal standard) as the ordinate. […] Unknown samples were calculated via the standard curve. Pharmacokinetic parameters were calculated using the non-compartmental analysis (NCA) model of WinNonlin 8.2 software and presented in the report. […]

T1 sequence (O75417 1-894): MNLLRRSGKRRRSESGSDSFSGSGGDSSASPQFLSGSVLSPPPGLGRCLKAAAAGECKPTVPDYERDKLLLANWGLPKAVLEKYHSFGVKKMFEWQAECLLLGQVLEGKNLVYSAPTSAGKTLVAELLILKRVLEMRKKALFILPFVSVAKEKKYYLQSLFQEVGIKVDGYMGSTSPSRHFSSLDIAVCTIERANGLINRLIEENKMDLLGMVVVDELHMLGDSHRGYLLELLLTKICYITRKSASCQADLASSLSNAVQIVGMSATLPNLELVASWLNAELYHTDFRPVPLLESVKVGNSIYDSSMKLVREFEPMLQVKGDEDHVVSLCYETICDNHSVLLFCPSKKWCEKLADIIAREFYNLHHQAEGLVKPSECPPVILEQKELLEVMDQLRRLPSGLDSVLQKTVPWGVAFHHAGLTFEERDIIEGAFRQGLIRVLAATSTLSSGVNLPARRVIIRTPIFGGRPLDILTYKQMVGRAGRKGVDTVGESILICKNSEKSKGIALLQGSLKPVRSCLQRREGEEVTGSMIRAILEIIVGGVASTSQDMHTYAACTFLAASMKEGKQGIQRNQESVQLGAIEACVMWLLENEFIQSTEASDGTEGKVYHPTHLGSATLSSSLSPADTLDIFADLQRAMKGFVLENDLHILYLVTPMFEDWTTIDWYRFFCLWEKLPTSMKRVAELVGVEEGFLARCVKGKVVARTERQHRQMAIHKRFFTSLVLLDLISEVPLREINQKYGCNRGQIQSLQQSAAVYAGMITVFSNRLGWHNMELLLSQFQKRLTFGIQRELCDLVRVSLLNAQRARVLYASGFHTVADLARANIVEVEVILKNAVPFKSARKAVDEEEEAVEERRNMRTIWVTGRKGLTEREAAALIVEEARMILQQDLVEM

SMILES: [2H]C([2H])([2H])O[C@@H](C)c1ccc(CS(=O)(=O)NC(=O)c2ccc(C([2H])([2H])[2H])cc2-c2cc(Cl)ncc2OC)cc1 [cpd-17, (S)-2-(2-Chloro-5-methoxypyridin-4-yl)-N-((4-(1-(methoxy-d3)ethyl)benzyl)sulfonyl)-4-(methyl-d3)benzamide]
- IC50 [1]: 1.8 nM
- IC50 (Polθ ATPase; class symbols): ≤ 2 nM
- IC50 (Polθ ATPase; specific values): 1.4 nM
- AUC(0-t) [2]: 11700 ng·h/mL
- Cmax [2]: 8300 ng/mL

SMILES: COc1cnc(Cl)cc1-c1cc(C)ncc1C(=O)Nc1nnc(OC[C@H]2COCCO2)s1 [Ref. 1, reference compound]
- IC50 [1]: 5 nM
- IC50 (Polθ ATPase; class symbols): 2 to 10 nM
- IC50 (Polθ ATPase; specific values): 2.2 nM

SMILES: [2H]C([2H])([2H])O[C@@H](C)c1ccc(CS(=O)(=O)NC(=O)c2ccc(C([2H])([2H])[2H])cc2-c2cc(C(F)F)ncc2OC)cc1 [cpd-16, (S)-2-(2-(Difluoromethyl)-5-methoxypyridin-4-yl)-N-((4-(1-(methoxy-d3)ethyl)benzyl)sulfonyl)-4-(methyl-d3)benzamide]
- IC50 [1]: 2 nM
- IC50 (Polθ ATPase; class symbols): ≤ 2 nM
- IC50 (Polθ ATPase; specific values): 0.39 nM
